ChEMBL document CHEMBL1127136, “Vinylogous vs arylogous isocephems” (1993)
Values after ≈ are worked out from the molar mass of the structure shown.

Columns and labels:
Enterobacteriaceae = assay: Antibacterial activity against enterobacteriaceae was determined.; assay type: functional
Staphylococcus sp. = assay: Antibacterial activity against staphylococci was determined.; assay type: functional

SMILES | MIC (Enterobacteriaceae) [µg/mL] | MIC (Staphylococcus sp.) [µg/mL]
CO/N=C(/C(=O)N[C@@H]1C(=O)N2C(C(=O)[O-])=C(/C=C/c3ccc(C[n+]4ccccc4)o3)SC[C@H]12)c1csc(N)n1 | 5.9 (≈ 10.4 µM) | 6.3 (≈ 11.1 µM)
CO/N=C(/C(=O)N[C@@H]1C(=O)N2C(C(=O)[O-])=C(C[n+]3ccccc3)SC[C@H]12)c1csc(N)n1 | 0.2 (≈ 0.421 µM) | 2.5 (≈ 5.27 µM)
CO/N=C(/C(=O)N[C@@H]1C(=O)N2C(C(=O)[O-])=C(/C=C/c3ccc(C[n+]4ccccc4)s3)SC[C@H]12)c1csc(N)n1 | 3.8 (≈ 6.52 µM) | 3.1 (≈ 5.32 µM)
CO/N=C(/C(=O)N[C@@H]1C(=O)N2C(C(=O)[O-])=C(/C=C/c3ccccc3C[n+]3ccccc3)SC[C@H]12)c1csc(N)n1 | 7.3 (≈ 12.7 µM) | 0.95 (≈ 1.65 µM)
CO/N=C(/C(=O)N[C@@H]1C(=O)N2C(C(=O)[O-])=C(/C=C/c3cccc(C[n+]4ccccc4)c3)SC[C@H]12)c1csc(N)n1 | 8 (≈ 13.9 µM) | 2.5 (≈ 4.34 µM)
CO/N=C(/C(=O)N[C@@H]1C(=O)N2C(C(=O)[O-])=C(/C=C/c3ccc(C[n+]4ccccc4)cc3)SC[C@H]12)c1csc(N)n1 | 3.9 (≈ 6.76 µM) | 6.3 (≈ 10.9 µM)
CO/N=C(/C(=O)N[C@@H]1C(=O)N2C(C(=O)[O-])=C(/C=C/C#CC[n+]3ccccc3)SC[C@H]12)c1csc(N)n1 | 0.4 (≈ 0.763 µM) | 5 (≈ 9.53 µM)
CO/N=C(/C(=O)N[C@@H]1C(=O)N2C(C(=O)[O-])=C(C[n+]3cccc4ccsc43)SC[C@H]12)c1csc(N)n1 | 0.12 (≈ 0.226 µM) | 0.76 (≈ 1.43 µM)
CO/N=C(/C(=O)N[C@@H]1C(=O)N2C(C(=O)[O-])=C(/C=C/C[n+]3cccc4ccsc43)SC[C@H]12)c1csc(N)n1 | 0.03 (≈ 0.0539 µM) | 0.12 (≈ 0.216 µM)
CO/N=C(/C(=O)N[C@@H]1C(=O)N2C(C(=O)[O-])=C(C[N+](C)(C)C)SC[C@H]12)c1csc(N)n1 | 0.28 (≈ 0.616 µM) | 10 (≈ 22 µM)

Other lines, results leading:

MIC (Enterobacteriaceae) [µg/mL] | MIC (Staphylococcus sp.) [µg/mL] | SMILES
1.5 (≈ 2.66 µM) | 5 (≈ 8.87 µM) | CO/N=C(/C(=O)N[C@@H]1C(=O)N2C(C(=O)O)=C(/C=C/C=C/CSc3nnnn3C)SC[C@H]12)c1csc(N)n1
0.19 (≈ 0.395 µM) | 1.2 (≈ 2.5 µM) | CO/N=C(/C(=O)N[C@@H]1C(=O)N2C(C(=O)[O-])=C(/C=C/C[N+](C)(C)C)SC[C@H]12)c1csc(N)n1
1 (≈ 2.08 µM) | 10 (≈ 20.8 µM) | CO/N=C(/C(=O)N[C@@H]1C(=O)N2C(C(=O)[O-])=C(/C=C\C[N+](C)(C)C)SC[C@H]12)c1csc(N)n1
0.12 | 0.38 | CO/N=C(/C(=O)N[C@@H]1C(=O)N2C(C(=O)O)=C(/C=C/C=C/C[n+]3cccc4ccsc43)SC[C@H]12)c1csc(N)n1.O=C([O-])C(F)(F)F
0.3 (≈ 0.599 µM) | 0.8 (≈ 1.6 µM) | CO/N=C(/C(=O)N[C@@H]1C(=O)N2C(C(=O)[O-])=C(/C=C/c3cc[n+](C)cc3)SC[C@H]12)c1csc(N)n1
0.14 (≈ 0.26 µM) | 2.5 (≈ 4.65 µM) | CO/N=C(/C(=O)N[C@@H]1C(=O)N2C(C(=O)O)=C(/C=C/CSc3nnnn3C)SC[C@H]12)c1csc(N)n1
0.4 (≈ 0.782 µM) | 15.9 (≈ 31.1 µM) | CO/N=C(/C(=O)N[C@@H]1C(=O)N2C(C(=O)O)=C(CSc3nnnn3C)SC[C@H]12)c1csc(N)n1
